The values that follow come from ChEMBL document CHEMBL1143751, “Isosteric probes provide structural requirements essential for detoxification of the phytoalexin brassinin by the fungal pathogen Leptosphaeria maculans” (2007).

Assay [1] relates to Plenodomus lingam. Put plainly: Specific activity of Leptosphaeria maculans brassinin oxidase.
In assay [2] the test system is Plenodomus lingam. Put plainly: Antifungal activity against Leptosphaeria maculans BJ 125 at 0.10 mM. It counts as functional.
Assay [3] relates to Plenodomus lingam. Put plainly: Antifungal activity against Leptosphaeria maculans BJ 125 at 0.50 mM. It counts as functional.
For assay [4], the system named is Plenodomus lingam. Put plainly: Antifungal activity against Leptosphaeria maculans BJ 125 at 0.20 mM. It counts as functional.

Each structure is given as a SMILES string. Calls of active or inactive are those of the source. The calls are words filed in the database; no cut-off is given here.

Usually inhibition stands for the change of the read-out against control, counted positive when it falls.

`CSC(=S)N(C)Cc1c[nH]c2ccccc12`: the result in assay [1] was inactive. The same molecule gave an inhibition at 100 µM in assay [2] of 74%. Moreover, the inhibition at 500 µM in assay [3] was determined as 100%. For the same molecule, in assay [4], the inhibition at 200 µM stood at 100%.
For `CCCSC(=S)NCc1c[nH]c2ccccc12`, the result in assay [1] was inactive. Besides, in assay [2], the inhibition at 100 µM was 78%. Moreover, 500 µM produced 100% inhibition in assay [3]. In addition, the inhibition at 200 µM in assay [4] is 100%.
With `COC(=O)CCc1c[nH]c2ccccc12`, the result in assay [1] was inactive.
On to `CNC(=O)CCc1c[nH]c2ccccc12`, for which the outcome in assay [1] was inactive.
Consider `COC(=O)N(C)Cc1c[nH]c2ccccc12`, for which, in assay [1], the result was inactive.
Same read-out and setting: as for `COC(=O)NCc1c[nH]c2ccccc12`, the figure is 4060 mU/mg.
The molecule `CSC(=S)NCc1c[nH]c2ccccc12` [BRASSININ] yielded an Activity in assay [1] of 835 mU/mg. For the same molecule, in assay [2], the outcome was inactive. Besides, in assay [3], testing at 500 µM gave an inhibition of 100%. This molecule gave an inhibition at 200 µM in assay [4] of 45%.
Molecule `CSC(=O)NCc1c[nH]c2ccccc12` displayed an Activity in assay [1] of 2150 mU/mg.
On the same count and under the same terms, as for `CNC(=O)NCc1c[nH]c2ccccc12`, the figure is 3280 mU/mg; as for `CNC(=S)NCc1c[nH]c2ccccc12`, 2560 mU/mg; as for `CSC(=S)OCCc1c[nH]c2ccccc12`, “inactive”.
Consider `CCSC(=S)NCc1c[nH]c2ccccc12`, for which, in assay [1], the Activity came to 434 mU/mg. Also, testing at 100 µM in assay [2] gave an inhibition of 28%. In addition, the inhibition at 500 µM in assay [3] worked out at 100%. This molecule returned an inhibition at 200 µM in assay [4] of 76%.
For the molecule `CSC(=S)NCCc1c[nH]c2ccccc12`, the result in assay [1] was inactive.
With `CSC(=S)NCc1cn(C)c2ccccc12`, in assay [1], the Activity is 944 mU/mg.
Still for that read-out and setting: as for `CC(=O)NCc1c[nH]c2ccccc12`, the entry is “inactive”.
